Source: PubChem BioAssay AID330 (DTP/NCI, 2004)
Values joined by “and” are separate entries in the source; they are usually repeats but may differ in a detail not shown here. Equal values may be shown once. Toxic doses and inconclusive results are not listed. Rule for the calls: active = survival T/C of 150% or more; inactive = T/C below 125% in these data. Peptide text beside a SMILES is read from it. * marks the point of attachment. Bn = c1ccc(C*)cc1

Test system: P388 leukemia ip, CD2F1 mice, survival T/C
Experiment: NCI In Vivo Anticancer Drug Screen. Data for tumor model P388 Leukemia (intraperitoneal) in CD2F1 (CDF1) mice
Conditions: endpoint: median survival time, higher = longer survival
Summary of the method: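 Mice carrying the transplanted tumor received test compound or vehicle. Survival was recorded in each group, and the value is the treated-group measurement divided by that of the vehicle-treated control group.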

[1] = dose: 50.0 mg/kg/injection, schedule: Q01DX005 (ip), vehicle: saline with Tween-80
[2] = dose: 100.0 mg/kg/injection, schedule: Q01DX005 (ip), vehicle: saline with Tween-80
[3] = dose: 200.0 mg/kg/injection, schedule: Q01DX005 (ip), vehicle: saline with Tween-80
[4] = dose: 6.25 mg/kg/injection, schedule: Q01DX005 (ip), vehicle: Klucel (hydroxypropylcellulose) (HPC)
[5] = dose: 12.5 mg/kg/injection, schedule: Q01DX005 (ip), vehicle: Klucel (hydroxypropylcellulose) (HPC)
[6] = dose: 25.0 mg/kg/injection, schedule: Q01DX005 (ip), vehicle: Klucel (hydroxypropylcellulose) (HPC)
[7] = dose: 50.0 mg/kg/injection, schedule: Q01DX005 (ip), vehicle: Klucel (hydroxypropylcellulose) (HPC)
[8] = dose: 100.0 mg/kg/injection, schedule: Q01DX005 (ip), vehicle: Klucel (hydroxypropylcellulose) (HPC)
[9] = dose: 200.0 mg/kg/injection, schedule: Q01DX005 (ip), vehicle: Klucel (hydroxypropylcellulose) (HPC)
[10] = dose: 50.0 mg/kg/injection, schedule: Q01DX009 (ip), vehicle: saline
[11] = dose: 100.0 mg/kg/injection, schedule: Q01DX009 (ip), vehicle: saline
[12] = dose: 200.0 mg/kg/injection, schedule: Q01DX009 (ip), vehicle: saline
[13] = dose: 50.0 mg/kg/injection, schedule: Q01DX009 (ip), vehicle: saline with Tween-80

Measured: T/C

CN1N=Nc2ccccc2C1(O)c1ccc(F)cc1 (configuration not stated)
inactive: [1] 104 % of control | [2] 104 % of control | [3] 107 % of control

O=C(N/N=C/c1cccnc1)C(=O)Nc1cccc(C(F)(F)F)c1
inactive: [4] 95 % of control | [5] 89 % of control | [6] 87 % of control

Cc1csc([NH-])n1.Cc1csc([NH-])n1.[Cl][Pt+2][Cl]
inactive: dose: 100.0 mg/kg/injection, schedule: Q01DX001 (sc), vehicle: olive oil, sesame oil, peanut oil 104 % of control | dose: 200.0 mg/kg/injection, schedule: Q01DX001 (sc), vehicle: olive oil, sesame oil, peanut oil 107 % of control | dose: 400.0 mg/kg/injection, schedule: Q01DX001 (sc), vehicle: olive oil, sesame oil, peanut oil 104 % of control

COC1=CC(=O)C2CC=CC3CC(=O)OC1C32CO (configuration not stated)
inactive: [7] 113 % of control | [8] 103 % of control | [9] 101 % of control

N#CC1CC2C=CC1C2 (configuration not stated)
inactive: dose: 5.0 mg/kg/injection, schedule: Q01DX009 (ip), vehicle: saline sonified 109 % of control | dose: 10.0 mg/kg/injection, schedule: Q01DX009 (ip), vehicle: saline sonified 109 % of control | dose: 20.0 mg/kg/injection, schedule: Q01DX009 (ip), vehicle: saline sonified 90 % of control

O=S(=O)(ON=C1C=CC(=NOS(=O)(=O)c2ccccc2)C=C1)c1ccccc1
inactive: dose: 25.0 mg/kg/injection, schedule: Q04DX003 (ip), vehicle: Klucel (hydroxypropylcellulose) (HPC) 107 % of control and 94 % of control | dose: 50.0 mg/kg/injection, schedule: Q04DX003 (ip), vehicle: Klucel (hydroxypropylcellulose) (HPC) 103 % of control and 87 % of control and 94 % of control | dose: 100.0 mg/kg/injection, schedule: Q04DX003 (ip), vehicle: Klucel (hydroxypropylcellulose) (HPC) 94 % of control | dose: 200.0 mg/kg/injection, schedule: Q04DX003 (ip), vehicle: Klucel (hydroxypropylcellulose) (HPC) 99 % of control and 100 % of control | dose: 400.0 mg/kg/injection, schedule: Q04DX003 (ip), vehicle: Klucel (hydroxypropylcellulose) (HPC) 116 % of control

CCc1cc2c(cc1-c1csc(C/C(N)=N/O)n1)C(C)(C)CCC2(C)C
inactive: [10] 104 % of control | [11] 103 % of control | [12] 100 % of control

CCCCCCCCOCCS(=O)(=O)O
inactive: dose: 60.0 mg/kg/injection, schedule: Q01DX005 (ip), vehicle: saline with Tween-80 95 % of control | dose: 120.0 mg/kg/injection, schedule: Q01DX005 (ip), vehicle: saline with Tween-80 92 % of control

NNS(=O)(=O)c1cccc(S(=O)(=O)NN)c1
inactive: dose: 12.5 mg/kg/injection, schedule: Q01DX009 (ip), vehicle: other 96 % of control | dose: 25.0 mg/kg/injection, schedule: Q01DX009 (ip), vehicle: other 96 % of control | dose: 50.0 mg/kg/injection, schedule: Q01DX009 (ip), vehicle: other 99 % of control

CC1(O)Cc2ccc3c(c2C(=O)C1O)C(=O)c1cccc(O)c1C3=O (configuration not stated)
inactive: dose: 3.12 mg/kg/injection, schedule: Q01DX005 (ip), vehicle: distilled water + Tween-80 + alcohol 98 % of control | dose: 6.25 mg/kg/injection, schedule: Q01DX005 (ip), vehicle: distilled water + Tween-80 + alcohol 100 % of control | dose: 12.5 mg/kg/injection, schedule: Q01DX005 (ip), vehicle: distilled water + Tween-80 + alcohol 100 % of control | dose: 25.0 mg/kg/injection, schedule: Q01DX005 (ip), vehicle: distilled water + Tween-80 + alcohol 100 % of control

C=CCSc1nc(N)nc2nc[nH]c12
inactive: [13] 100 % of control | dose: 100.0 mg/kg/injection, schedule: Q01DX009 (ip), vehicle: saline with Tween-80 100 % of control | dose: 200.0 mg/kg/injection, schedule: Q01DX009 (ip), vehicle: saline with Tween-80 90 % of control

CNc1cc2nc3ccccc3nc2cc1O
inactive: [10] 104 % of control | [11] 92 % of control | [12] 86 % of control

Cc1cccc2c(NCCCCCCNc3cc(C)[n+](C)c4c(C)cccc34)cc(C)[n+](C)c12
inactive: dose: 3.12 mg/kg/injection, schedule: Q01DX005 (ip), vehicle: suspension in saline 112 % of control | dose: 6.25 mg/kg/injection, schedule: Q01DX005 (ip), vehicle: suspension in saline 106 % of control | dose: 12.5 mg/kg/injection, schedule: Q01DX005 (ip), vehicle: suspension in saline 112 % of control

O=CNC(Cc1cnc[nH]1)C(=O)O (configuration not stated)
inactive: [1] 100 % of control | [2] 98 % of control | [3] 97 % of control

CCCCCCCCCCCCCCCCCC(=O)[O][Hg][c]1ccccc1
inactive: dose: 2.5 mg/kg/injection, schedule: Q04DX003 (ip), vehicle: Klucel (hydroxypropylcellulose) (HPC) 100 % of control | dose: 5.0 mg/kg/injection, schedule: Q04DX003 (ip), vehicle: Klucel (hydroxypropylcellulose) (HPC) 100 % of control | dose: 10.0 mg/kg/injection, schedule: Q04DX003 (ip), vehicle: Klucel (hydroxypropylcellulose) (HPC) 100 % of control

COc1cc[c]([Sn]([O][Sn]([Cl])([c]2ccc(OC)cc2)[c]2ccc(OC)cc2)[c]2ccc(OC)cc2)cc1
inactive: dose: 3.12 mg/kg/injection, schedule: Q01DX005 (ip), vehicle: Klucel (hydroxypropylcellulose) (HPC) 97 % of control | [4] 116 % of control and 92 % of control | [5] 111 % of control | [6] 120 % of control

O=C1CCC/C(c2ccccc2)=N\N=C/1c1ccccc1
inactive: [7] 106 % of control | [8] 106 % of control | [9] 103 % of control

CCCCCCCCCCCCCCCCS(=O)(=O)N/N=C(/c1ccc(Cl)cc1)N1CCCCC1
inactive: dose: 50.0 mg/kg/injection, schedule: Q01DX009 (ip), vehicle: Klucel (hydroxypropylcellulose) (HPC) 100 % of control | dose: 100.0 mg/kg/injection, schedule: Q01DX009 (ip), vehicle: Klucel (hydroxypropylcellulose) (HPC) 102 % of control | dose: 200.0 mg/kg/injection, schedule: Q01DX009 (ip), vehicle: Klucel (hydroxypropylcellulose) (HPC) 92 % of control

COC(=O)C1=CO[C@@H](OC2OC(CO)C(O)C(O)C2O)[C@@H]2[C@@H](C)[C@@H](O)[C@@H](O)[C@]12O (some centres not stated)
inactive: dose: 25.0 mg/kg/injection, schedule: Q01DX005 (ip), vehicle: saline 102 % of control | dose: 50.0 mg/kg/injection, schedule: Q01DX005 (ip), vehicle: saline 102 % of control | dose: 100.0 mg/kg/injection, schedule: Q01DX005 (ip), vehicle: saline 100 % of control | dose: 200.0 mg/kg/injection, schedule: Q01DX005 (ip), vehicle: saline 108 % of control

NCC(=O)NCC(=O)NC(Cc1ccc(OCc2ccccc2)cc1)C(=O)NC(CCCN=C(N)N)C(=O)O (configuration not stated) (H-GGY(Bn)R-OH; configuration not given here)
inactive: dose: 60.0 mg/kg/injection, schedule: Q01DX005 (ip), vehicle: saline 95 % of control | dose: 120.0 mg/kg/injection, schedule: Q01DX005 (ip), vehicle: saline 100 % of control | dose: 240.0 mg/kg/injection, schedule: Q01DX005 (ip), vehicle: saline 100 % of control

Cc1cc(=O)c2c(=O)[nH][nH]c2[nH]1
inactive: dose: 50.0 mg/kg/injection, schedule: Q04DX003 (ip), vehicle: saline with Tween-80 100 % of control | dose: 100.0 mg/kg/injection, schedule: Q04DX003 (ip), vehicle: saline with Tween-80 90 % of control | dose: 200.0 mg/kg/injection, schedule: Q04DX003 (ip), vehicle: saline with Tween-80 90 % of control

N#CC1(c2ccccc2)OC1(C#N)c1ccccc1 (configuration not stated)
inactive: dose: 12.5 mg/kg/injection, schedule: Q01DX009 (ip), vehicle: saline with Tween-80 96 % of control | dose: 25.0 mg/kg/injection, schedule: Q01DX009 (ip), vehicle: saline with Tween-80 101 % of control | dose: 37.5 mg/kg/injection, schedule: Q01DX009 (ip), vehicle: acetone 96 % of control | [13] 93 % of control | dose: 75.0 mg/kg/injection, schedule: Q01DX009 (ip), vehicle: acetone 95 % of control | dose: 150.0 mg/kg/injection, schedule: Q01DX009 (ip), vehicle: acetone 113 % of control

CC[P+](c1ccccc1)(c1ccccc1)c1ccccc1
inactive: dose: 0.62 mg/kg/injection, schedule: Q01DX009 (ip), vehicle: saline with Tween-80 111 % of control | dose: 1.25 mg/kg/injection, schedule: Q01DX009 (ip), vehicle: saline with Tween-80 104 % of control | dose: 2.5 mg/kg/injection, schedule: Q01DX009 (ip), vehicle: saline with Tween-80 112 % of control | dose: 5.0 mg/kg/injection, schedule: Q01DX009 (ip), vehicle: saline with Tween-80 119 % of control
